Data reported in patent US9670463B2, “Inhibition and enhancement of reprogramming by chromatin modifying enzymes” (Children's Medical Center Corporation, priority 2011, dated 2017).

Key:
[1] = test system: iPS-derived secondary MEFs; assay: Reprogramming of inducible iPS-derived secondary MEFs, AP+ colonies; format: cell-based, mouse; conditions: doxycycline, iDot1L 10 um
H3K79me2 = assay: ChIP-seq for H3K79me2 on OSKM expressing fibroblasts; format: cell-based, human; conditions: iDot1L 10 uM; 6 days after OSKM
Procedure: ChIP-seq was performed as described with slight modifications^25. 300 000 cells were fixed at room temperature in PBS 1% formalin (v/v) for 10 minutes with gentle agitations. Fixation was stopped by the addition of glycine (125 mM final concentration) and agitation for 5 min at room temperature. Fixed cells were washed twice in ice-cold PBS, resuspended in 100 ul of SDS lysis buffer (1% SDS, 10 mM EDTA, 50 mM Tris-HCl, pH 8.1). Chromatin was sheared by sonication to about 100-500 bp fragments using bioruptor (diagenode, Denville, N.J.) and diluted tenfold with dilution buffer (0.01% SDS, 1.1% Triton-X100, 1.2 mM EDTA, 16.7 mM Tris-HCl, pH 8.1, 167 mM NaCl). Antibodies against specific histone modifications was added to sonicated chromatin solution and incubated at 4 degree overnight with gentle agitation. The antibodies used were anti-H3K27me3 (Millipore 07-449) and anti-H3K79me2 (abcam 3594). Immune complexes were collected by incubation with 20 ul of Protein A/G agarose beads (Millipore) for an hour at 4 degree with gentle agitation. […]

H3K79 methylation = assay: Total H3K79me2 levels in fibroblasts by western blotting; format: cell-based, human; conditions: 1 uM to 10 uM concentration range, fibroblasts treated 5 days
Source text: In addition to the shRNA mediated knockdown of Dot1L, a small molecule inhibitor of Dot1L catalytic activity was used to further validate the findings^15. […] Data correspond to the average and s.d.; n=3. *P<0.001 compared untreated fibroblasts.

Oct4-GFP MEFs = assay: Reprogramming of OSKM transduced Oct4-GFP MEFs, AP+ colonies; format: cell-based, mouse; conditions: iDot1L 10 um
Procedure: It was assessed whether these observations can be extended to the murine system. It was observed that, similar to human fibroblasts, iDot1L treatment led to 3-fold enhancement of reprogramming of Oct4-GFP MEFs (FIG. 3D). […] Data correspond to the average and s.d.; n=4. *P<0.001 compared untreated MEFs. Representative AP-stained wells and GFP-positive iPS colonies derived from each condition are shown in the lower panel.

dH1f cells = assay: Reprogramming assay, Tra-1-60+ iPSC colonies from dH1f fibroblasts; format: cell-based, human
Procedure: dH1f cells were first infected with shRNA viruses at high MOI to ensure all cells received at least one vector (Gauged by puromycin resistance of parallel infected wells). 25,000 shRNA-infected dH1f cells were then plated per well in 12-well plates and infected overnight with either retroviral (MOI 2.5) 7 or lentiviral (Addgene #21162, 21164; 100-200 μl supernatant)29 reprogramming factors. For 2-factor reprogramming, Oct4 and Sox2 viruses were used at an MOI of 5. 6 days later, cells were trypsinized and re-plated 1:4 to 1:6 onto 6-well plates. Medium was changed to hES medium daily until Day 21 when plates were fixed. Small molecule inhibitor of Dot1L, EPZ004777 (a gift from Epizyme, Inc., Cambridge, Mass.) was dissolved in DMSO as a 10 mM stock and was added at the indicated concentrations. For Dot1L rescue experiments, an MSCV-based retroviral vector encoding human Dot1L with or without mutations in the SAM binding site (gifts of Y. Zhang) were mutagenized at the shRNA target site using QuikChange II XL Site-Directed Mutagenesis Kit (Agilent Technologies). In certain experiments, Nanog and Lin28 expression was achieved using lentivirus (Addgene #21163). IMR-90 and MRC5 human diploid fibroblasts were purchased from ATCC and 50000 cells were used in reprogramming experiments. Statistical analysis was performed using a Student's t-test.
Immunostaining of reprogramming plates were performed as described^8. Briefly, cells were fixed with 4% p-formaldehyde and stained with biotin-anti-Tra-1-60 (eBioscience, #13-8863-82, 1:250) and streptavidin horseradish peroxidase (Biolegend, #405210, 1:500) diluted in PBS (3%), FCS (0.3%) Triton X-100. Staining was developed with the Vector labs DAB kit (#SK-4100), and iPSC colonies quantified with ImageJ software. For the characterization of shDot1l-iPS cells, single colonies were put onto MEF coated 96-well plates. The plates were fixed for 20 min with 4% p-formaldehyde/PBS (+/+), washed several times with PBS (+/+) and incubated overnight at 4° C. with primary antibody and Hoechst diluted in 3% donkey serum/3% BSA Fraction VII/0.01% Triton X-100/PBS (+/+); Hoechst, Invitrogen #H3570 (1:20,000), Tra-1-81/A488 (BD #560174), SSEA-4/A647 (BD #560219), Tra-1-60/A647 (BD #560122), Nanog, rabbit polyclonal (Abcam #ab21624), Oct4, rabbit polyclonal (Abcam #ab19857). For Nanog and Oct4, donkey anti-rabbit IgG/A555 (Molecular Probes #A31572) secondary antibody was used. After several washes with PBS (+/+), images were acquired using a BD Pathway 435 imager equipped with a ×10 objective.

[2] = iDot1L 10 uM, OSKM, Tra-1-60+ colonies at 21 days

## CC(C)N(CCCNC(=O)Nc1ccc(C(C)(C)C)cc1)C[C@H]1O[C@@H](n2ccc3c(N)ncnc32)[C@H](O)[C@@H]1O.Cl [EPZ004777]
[1]
  reprogramming efficiency of secondary MEFs: increased reprogramming efficiency
H3K79me2
  K79me2 levels on genes: reduced on almost all genes
H3K79 methylation
  H3K79 methylation: abrogated H3K79 methylation robustly
Oct4-GFP MEFs
  enhancement of reprogramming of Oct4-GFP MEFs: 3 fold
dH1f cells; OSKM, dH1f cells treated for 21 days, relative to untreated
  enhancement of reprogramming of human fibroblasts: 3-4 fold
dH1f cells; iDot1L 10 uM plus Dot1L shRNA, OSKM, 21 days
  reprogramming efficiency, inhibitor combined with Dot1L knockdown: did not result in a further increase of reprogramming efficiency
dH1f cells; [2]
  reprogramming, pretreatment for 5 days prior to OSKM transduction: no effect
  reprogramming, treatment in the first or the second week: sufficient to enhance reprogramming
dH1f cells; iDot1L 10 uM, Tra-1-60 staining 21 days after reprogramming
  reprogramming in the absence of Klf4, c-Myc or both: allowed reprogramming in the absence of either Klf4 or Myc and was able to replace both of these exogenous factors
